Laboratory results: patent US8410174B2, “Method for treating arthritis” (AnaMar AB, priority 2000, dated 2013)

Legend:
MC4 [1] = target: T1, MC4 (Homo sapiens, UniProt P32245); test: Stimulation of cAMP, MC4; format: cell-based
Protocol: (§1) The stimulation of cAMP was carried out essentially as described by Schiöth et al, Br J Pharmacol 1998; 124; 75-82.

MC1-receptor = MC1-receptor (Mus musculus, UniProt Q01727); test: Affinity for the MC1-receptor, binding assay with I125-NDP-αMSH as ligand; details: read-out: Affinity for MC-receptors Ki MC1
Chain of MC1-receptor (Q01727 whole entry): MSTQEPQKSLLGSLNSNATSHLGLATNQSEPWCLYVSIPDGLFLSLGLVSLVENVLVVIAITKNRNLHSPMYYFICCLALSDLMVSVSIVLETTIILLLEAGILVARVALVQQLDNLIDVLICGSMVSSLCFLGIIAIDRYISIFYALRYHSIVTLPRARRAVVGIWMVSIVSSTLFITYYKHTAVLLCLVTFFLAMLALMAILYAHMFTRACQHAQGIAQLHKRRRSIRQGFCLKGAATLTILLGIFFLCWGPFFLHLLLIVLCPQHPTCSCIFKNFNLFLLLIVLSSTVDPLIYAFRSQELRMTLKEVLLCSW
Protocol: Test 1. Affinity for the MC1-receptor
The binding assay was carried out essentially as described by Lunec et al, Melanoma Res 1992; 2; 5-12, using I^125-NDP-αMSH as ligand.

MC3 [2] = target: T2, MC3 (Homo sapiens, UniProt P41968); test: Stimulation of cAMP, MC3; format: cell-based
T2 sequence (P41968 whole entry): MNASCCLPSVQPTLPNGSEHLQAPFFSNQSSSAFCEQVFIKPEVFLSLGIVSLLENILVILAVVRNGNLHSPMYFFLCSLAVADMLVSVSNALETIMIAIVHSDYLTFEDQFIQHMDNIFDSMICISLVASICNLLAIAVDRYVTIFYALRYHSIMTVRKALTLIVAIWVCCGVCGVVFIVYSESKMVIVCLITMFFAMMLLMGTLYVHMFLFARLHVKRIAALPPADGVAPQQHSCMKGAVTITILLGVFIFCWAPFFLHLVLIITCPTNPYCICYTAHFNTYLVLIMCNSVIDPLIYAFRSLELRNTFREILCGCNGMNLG
Protocol: as §1

MC4 [3] = target: T1, MC4; test: Affinity for the MC4-receptors, binding assay with I125-NDP-αMSH as ligand; details: read-out: Affinity for MC-receptors Ki MC4
Protocol: (§2) Test 2. Affinity for the MC3-Receptors, the MC4-Receptors and the MC5-Receptors
(§3) The binding assays were carried out essentially as described by Szardenings et al, J Biol Chem 1997; 272; 27943-27948 and Schiöth et al, FEES Lett 1997; 410; 223-228 using I^125-NDP-αMSH as ligand.

MC1 = MC1 (Homo sapiens, UniProt Q01726); test: Stimulation of cAMP, MC1; format: cell-based
Chain of MC1 (Q01726 whole entry): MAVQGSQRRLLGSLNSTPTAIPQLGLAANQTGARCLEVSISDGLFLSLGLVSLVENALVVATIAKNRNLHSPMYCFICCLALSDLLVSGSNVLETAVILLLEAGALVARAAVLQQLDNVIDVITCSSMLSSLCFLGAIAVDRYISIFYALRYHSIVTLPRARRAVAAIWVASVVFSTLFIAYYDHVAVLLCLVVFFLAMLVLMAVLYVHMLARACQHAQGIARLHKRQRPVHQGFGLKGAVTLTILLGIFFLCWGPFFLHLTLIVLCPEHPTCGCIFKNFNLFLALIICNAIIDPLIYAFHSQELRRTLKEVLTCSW
Protocol: as §1

MC5 [4] = target: T3, MC5 (Homo sapiens, UniProt P33032); test: Stimulation of cAMP, MC5; format: cell-based
T3 sequence (P33032 whole entry): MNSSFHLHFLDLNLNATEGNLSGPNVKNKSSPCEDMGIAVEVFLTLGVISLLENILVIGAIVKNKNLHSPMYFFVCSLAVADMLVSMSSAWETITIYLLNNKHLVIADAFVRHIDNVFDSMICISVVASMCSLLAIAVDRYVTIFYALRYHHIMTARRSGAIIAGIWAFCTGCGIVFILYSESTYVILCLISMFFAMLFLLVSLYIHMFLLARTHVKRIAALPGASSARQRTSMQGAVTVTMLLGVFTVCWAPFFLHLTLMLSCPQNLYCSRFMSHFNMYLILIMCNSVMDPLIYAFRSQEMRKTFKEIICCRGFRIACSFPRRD
Protocol: as §1

MC3 [5] = target: T2, MC3; test: Affinity for the MC3-receptors, binding assay with I125-NDP-αMSH as ligand; details: read-out: Affinity for MC-receptors Ki MC3
Protocol: as §2, §3

MC5 [6] = target: T3, MC5; test: Affinity for the MC5-receptors, binding assay with I125-NDP-αMSH as ligand; details: read-out: Affinity for MC-receptors Ki MC5
Protocol: as §2, §3

melanocortin receptors = test: Affinity to the melanocortin receptors; format: binding

T1 sequence (P32245 whole entry): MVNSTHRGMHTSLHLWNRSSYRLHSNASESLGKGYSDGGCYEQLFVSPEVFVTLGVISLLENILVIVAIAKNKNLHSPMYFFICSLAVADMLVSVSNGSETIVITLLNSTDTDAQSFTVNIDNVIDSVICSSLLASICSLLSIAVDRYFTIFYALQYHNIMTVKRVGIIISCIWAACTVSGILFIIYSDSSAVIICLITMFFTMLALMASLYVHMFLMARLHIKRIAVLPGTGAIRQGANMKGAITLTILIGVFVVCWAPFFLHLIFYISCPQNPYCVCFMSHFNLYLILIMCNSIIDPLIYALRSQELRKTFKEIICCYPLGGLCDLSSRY

| Compound | melting point | also measured |
| --- | --- | --- |
| CC(=O)O.COc1ccc(C=NNC(=N)N)c(Cl)c1OC | 198 to 200 °C |  |
| CC(=O)O.COc1cc([N+](=O)[O-])cc(C=NNC(=N)N)c1OC | 191 to 194 °C |  |
| CC(=O)O.N=C(N)NN=Cc1ccc(F)c(F)c1 | 176 to 178 °C |  |
| CC(=O)O.N=C(N)NN=Cc1cc([N+](=O)[O-])ccc1F | 192 to 195 °C |  |
| CC(=O)O.N=C(N)NN=Cc1ccc(Br)cc1F | 187 to 188 °C |  |
| CC(=O)O.N=C(N)NN=Cc1c(F)cccc1F | 138.5 to 141 °C |  |
| COc1cc([N+](=O)[O-])cc(C=NNC(=N)N)c1OC.Cl | 237 to 238 °C |  |
| CC(=O)O.COc1ccc(C=NNC(=N)N)c(O)c1 | 161 to 164 °C |  |
| CC(=O)O.N=C(N)NN=Cc1ccc(Br)c([N+](=O)[O-])c1 | 152 to 153 °C |  |
| Cl.N=C(N)NN=Cc1c(Cl)ccc([N+](=O)[O-])c1[N+](=O)[O-] | 153 to 154.5 °C |  |
| COc1ccc(C=NNC(=N)N)cc1Br.Cl | 261 to 262.5 °C |  |
| Cl.N=C(N)NN=Cc1cccc(I)c1 | 203 to 204 °C |  |
| Cl.N=C(N)NN=Cc1ccccc1S(=O)(=O)O | > 260 °C |  |
| CC(=O)O.N=C(N)NN=Cc1cc([N+](=O)[O-])ccc1Cl | 222 to 224 °C (dec.) |  |
| CC(=O)O.N=C(N)NN=Cc1ccc(F)c([N+](=O)[O-])c1 | 222 to 224 °C (dec.) |  |
| CC(=O)O.COc1ccc(C=NNC(=N)N)cc1[N+](=O)[O-] | 144 to 147 °C |  |
| COc1cc([N+](=O)[O-])cc(C=NNC(=N)NO)c1OC.Cl | 196 to 197.5 °C |  |
| CC(=O)O.N=C(N)NN=Cc1cc(F)cc(F)c1[N+](=O)[O-] | 231 to 233 °C |  |
| CC(=O)O.N=C(N)NN=Cc1cc(Cl)cc(Cl)c1[N+](=O)[O-] | 88 to 91 °C |  |
| COc1cc([N+](=O)[O-])cc(C=NNC(=N)N)c1O.Cl | 243 to 246 °C |  |
| CC(=O)O.COc1c(Cl)cc(C=NNC(=N)N)cc1[N+](=O)[O-] | 255 to 258 °C (dec.) |  |
| CC(=O)O.COc1c(Cl)cc(C=NNC(=N)N)cc1Cl | 185 to 190 °C |  |
| CC(=O)O.COc1c(C)cc(C=NNC(=N)N)cc1Br | 163 to 166 °C |  |
| COc1ccc(C=NNC(=N)N)c(OC)c1OC.Cl | 181 to 183 °C |  |
| CC(=O)O.COc1cc(Cl)c([N+](=O)[O-])cc1C=NNC(=N)N | 196 to 199 °C |  |

| Compound | melting point | also measured |
| --- | --- | --- |
| CC(=O)O.N=C(N)NN=Cc1c(Cl)ccc(Cl)c1[N+](=O)[O-] | 219.5 to 221 °C |  |
| Cc1cc(O)c(C=NNC(=N)N)cc1[N+](=O)[O-].Cl | 229 to 230 °C |  |
| CC(=O)O.N=C(N)NN=Cc1cc(Cl)cc([N+](=O)[O-])c1Br | 136.5 to 137 °C |  |
| CC(=O)O.Cc1ccc(C=NNC(=N)N)c([N+](=O)[O-])c1O | 240 to 241 °C |  |
| Cc1cc([N+](=O)[O-])c(C=NNC(=N)N)cc1Br.Cl | 246.5 to 248 °C |  |
| Cl.N=C(N)NN=Cc1cc(Br)cc([N+](=O)[O-])c1O | > 250 °C |  |
| COc1c(C=NNC(=N)N)cc(Br)cc1[N+](=O)[O-].Cl | 258 to 259 °C |  |
| CC(=O)O.COc1cc(OC)c([N+](=O)[O-])cc1C=NNC(=N)N | 207 to 210 °C |  |
| CC(=O)O.N=C(N)NN=Cc1cc([N+](=O)[O-])c(Br)cc1F | 175 to 198 °C (dec.) |  |
| CC(=O)O.COc1cc(C=NNC(=N)N)cc(OC)c1OC | 223 to 225 °C |  |
| CC(=O)O.COc1cc(OC)c(C=NNC(=N)N)c(OC)c1 | 66 to 68 °C |  |
| CC(=O)O.N=C(N)NN=Cc1ccc([N+](=O)[O-])cc1[N+](=O)[O-] | 224 to 226 °C |  |
| CC(=O)O.COc1cc(O)c(C=NNC(=N)N)c(OC)c1 | 115 to 118 °C |  |
| CC(=O)O.N=C(N)NN=Cc1ccc(F)c(Br)c1 | 172 to 173.5 °C |  |
| CC(=O)O.N=C(N)NN=Cc1cccc(F)c1F | 149 to 151.5 °C |  |
| COc1ccc([N+](=O)[O-])c(C=NNC(=N)N)c1[N+](=O)[O-].Cl | 217 to 218 °C |  |
| Cl.N=C(N)NN=Cc1c([N+](=O)[O-])ccc(Br)c1[N+](=O)[O-] | 166.5 to 168 °C |  |
| CC(=O)O.COc1cc([N+](=O)[O-])c([N+](=O)[O-])c(C=NNC(=N)N)c1OC | 165 to 171 °C |  |
| CC(=O)O.N=C(N)NN=Cc1cc([N+](=O)[O-])cc([N+](=O)[O-])c1.O.O (hydrate or solvate) | 251 to 254 °C (dec.) |  |
| COc1ccc(C=NNC(=N)NO)cc1Br.Cc1ccc(S(=O)(=O)O)cc1 [1:3, N-(3-Bromo-4-methoxybenzylideneamino)-N′-hydroxyguanidine tosylate] |  | Influence on cAMP MC4c (MC4 [1]): 31.8; Ki (MC1-receptor): 42 µM; Influence on cAMP MC3c (MC3 [2]): 16; Ki (MC4 [3]): 62 µM; Influence on cAMP MC1c (MC1): 8.4; Influence on cAMP MC5c (MC5 [4]): 4.7; Ki (MC3 [5]): 91 µM; Ki (MC5 [6]): 47 µM |
| Cc1ccc(S(=O)(=O)O)cc1.N=C(NO)NN=Cc1cc(Cl)ccc1[N+](=O)[O-] [1:4, N-(5-Chloro-2-nitrobenzylideneamino)-N′-hydroxyguanidine tosylate] |  | Influence on cAMP MC4c (MC4 [1]): 17.1; Ki (MC1-receptor): 42 µM; Influence on cAMP MC3c (MC3 [2]): 1; Ki (MC4 [3]): 61 µM; Influence on cAMP MC1c (MC1): 6.4; Influence on cAMP MC5c (MC5 [4]): 8.7; Ki (MC3 [5]): 68 µM; Ki (MC5 [6]): 33 µM |
| COc1ccc(C=NNC(=N)NO)cc1[N+](=O)[O-] [1:76, N-(4-Methoxy-3-nitrobenzylideneamino)-N′-hydroxyguanidine] | 219 to 221 °C |  |
| N=C(NO)NN=Cc1ccccc1S(=O)(=O)O [1:134, N-(2-Sulphobenzylideneamino)-N′-hydroxyguanidine] | 243.5 to 244 °C |  |
| N=C(N)N/N=C/c1c(Cl)cccc1Cl [Guanabenz] |  | affinity to the melanocortin receptors (melanocortin receptors): no affinity |
